# Measurements: patent US12409179B2 (GENEROS BIOPHARMA LTD., priority 2019, dated 2025)
# Experiments:
# [1] = rat, in vivo
# [2] = tested on: Lewis rat adjuvant-induced arthritis model; assay: Embodiment 1: oral Nib1 and injected methotrexate in Lewis rat adjuvant-induced arthritis model (joint score, paw volume, AUC); type: in vivo
# [3] = rat, in vivo, po, 10 mg/kg
# [4] = tested on: adjuvant-induced arthritis in rats; assay: Embodiment 3: oral Nib1 and methotrexate in adjuvant-induced arthritis in rats (joint score, paw volume, AUC); type: in vivo, Lewis rat; conditions: for Relative to G2 percentage (%) (AUC of changes in paw volume): G2 = Vehicle; for Relative to G2 percentage (%) (AUC of changes in paw volume) / Area under the curve AUC (ml*day) of changes in paw volume / Clinical scoring of arthritis (sum of the scores of the quadrupedal joints), Average value / volume of the right hind foot, Average value: oral, Tofacitinib 5 mpk, MTX 0.05 mpk, Nib1 1 mpk, Nib1 1 mpk + MTX 0.05 mpk
# [5] = tested on: rat adjuvant-induced arthritis model; assay: Embodiment 2: oral Nib1 and medium-dose methotrexate in rat adjuvant-induced arthritis model (joint score, paw volume, AUC); type: in vivo, Lewis rat; conditions: MTX 0.5 mpk, Nib1 5 mpk, Nib1 5 mpk + MTX 0.5 mpk; for Relative to G2 percentage (%) (AUC of changes in paw volume): Embodiment 2, G2 = Vehicle, Tofacitinib 5 mpk; for Total area (AUC of changes in paw volume): Embodiment 2, Tofacitinib 5 mpk, in mL·day
smiles,measurement,setting,value
"O=c1[nH]c2ccccc2n1C1CCN(CCCC(c2ccc(F)cc2)c2ccc(F)cc2)CC1 [Nib1, Pimozide]","changes in body weight over time (Table 5, FIG. 5)",[1],"decreased significantly in the initial stage, and gradually recovered in the later stage"
same,the therapeutic effects compared with vehicle group (paw volume x time AUC %),"[2]; methotrexate 0.5 mg/kg intraperitoneal once per week, Nib1 10 mg/kg oral once every two days",66.6%
same,"paw volume AUC relative to vehicle group, as fraction","[2]; methotrexate 0.5 mg/kg intraperitoneal, Nib1 10 mg/kg oral",0.666
same,changes in body weight over time (FIG. 1),[3],"lower than other groups, but there was no significant difference"
same,Relative to G2 percentage (%) (AUC of changes in paw volume),[4]; Embodiment 3,74.9%
same,"change ratio of ΔAUC relative to the vehicle group, as fraction","[4]; Embodiment 3, methotrexate 0.05 mg/kg, Nib1 1 mg/kg",0.749
same,Area under the curve AUC (ml*day) of changes in paw volume,[4]; Embodiment 3,14.26 mL·days
same,"Clinical scoring of arthritis (sum of the scores of the quadrupedal joints), Average value",[4]; day 0,0.00
same,"volume of the right hind foot, Average value",[4]; day 0,1.31 mL
same,"Clinical scoring of arthritis (sum of the scores of the quadrupedal joints), Average value",[4]; day 8,0.78
same,"volume of the right hind foot, Average value",[4]; day 8,1.44 mL
same,"Clinical scoring of arthritis (sum of the scores of the quadrupedal joints), Average value",[4]; day 11,3.33
same,"volume of the right hind foot, Average value",[4]; day 11,1.79 mL
same,"Clinical scoring of arthritis (sum of the scores of the quadrupedal joints), Average value",[4]; day 13,5.22
same,"Clinical scoring of arthritis (sum of the scores of the quadrupedal joints), Average value",[4]; day 15,6.33
same,"volume of the right hind foot, Average value",[4]; day 15,2.41 mL
same,"Clinical scoring of arthritis (sum of the scores of the quadrupedal joints), Average value",[4]; day 18,7.89
same,"volume of the right hind foot, Average value",[4]; day 18,2.73 mL
same,"Clinical scoring of arthritis (sum of the scores of the quadrupedal joints), Average value",[4]; day 21,8.56
same,"volume of the right hind foot, Average value",[4]; day 22,3.10 mL
same,"Clinical scoring of arthritis (sum of the scores of the quadrupedal joints), Average value",[4]; day 24,8.67
same,Relative to G2 percentage (%) (AUC of changes in paw volume),[5],56.9%
same,Total area (AUC of changes in paw volume),[5],21.32
same,"Clinical scoring of arthritis (sum of the scores of the quadrupedal joints), Average value","[5]; day 0, Tofacitinib 5 mpk",0
same,"paw volume (right hind foot), Average value","[5]; day 0, Tofacitinib 5 mpk",1.02 mL
same,"Clinical scoring of arthritis (sum of the scores of the quadrupedal joints), Average value","[5]; day 7, Tofacitinib 5 mpk",0.63
same,"paw volume (right hind foot), Average value","[5]; day 7, Tofacitinib 5 mpk",1.71 mL
same,"Clinical scoring of arthritis (sum of the scores of the quadrupedal joints), Average value","[5]; day 13, Tofacitinib 5 mpk",1.75
same,"paw volume (right hind foot), Average value","[5]; day 13, Tofacitinib 5 mpk",1.88 mL
same,"Clinical scoring of arthritis (sum of the scores of the quadrupedal joints), Average value","[5]; day 15, Tofacitinib 5 mpk",5.50
same,"paw volume (right hind foot), Average value","[5]; day 15, Tofacitinib 5 mpk",1.94 mL
same,"Clinical scoring of arthritis (sum of the scores of the quadrupedal joints), Average value","[5]; day 17, Tofacitinib 5 mpk",6.75
same,"paw volume (right hind foot), Average value","[5]; day 17, Tofacitinib 5 mpk",2.05 mL
same,"Clinical scoring of arthritis (sum of the scores of the quadrupedal joints), Average value","[5]; day 20, Tofacitinib 5 mpk",7.00
same,"paw volume (right hind foot), Average value","[5]; day 20, Tofacitinib 5 mpk",2.05 mL
same,"Clinical scoring of arthritis (sum of the scores of the quadrupedal joints), Average value","[5]; day 22, Tofacitinib 5 mpk",7.25
same,"paw volume (right hind foot), Average value","[5]; day 22, Tofacitinib 5 mpk",2.00 mL
same,"Clinical scoring of arthritis (sum of the scores of the quadrupedal joints), Average value","[5]; day 24, Tofacitinib 5 mpk",7.25
same,"paw volume (right hind foot), Average value","[5]; day 24, Tofacitinib 5 mpk",2.06 mL
same,"Clinical scoring of arthritis (sum of the scores of the quadrupedal joints), Average value","[5]; day 27, Tofacitinib 5 mpk",7.00
same,"paw volume (right hind foot), Average value","[5]; day 27, Tofacitinib 5 mpk",2.20 mL
same,"Clinical scoring of arthritis (sum of the scores of the quadrupedal joints), Average value","[5]; day 29, Tofacitinib 5 mpk",6.88
same,"paw volume (right hind foot), Average value","[5]; day 29, Tofacitinib 5 mpk",2.16 mL
same,"Clinical scoring of arthritis (sum of the scores of the quadrupedal joints), Average value","[5]; day 31, Tofacitinib 5 mpk",7.13
same,"paw volume (right hind foot), Average value","[5]; day 31, Tofacitinib 5 mpk",2.16 mL
same,"Clinical scoring of arthritis (sum of the scores of the quadrupedal joints), Average value","[5]; day 34, Tofacitinib 5 mpk",6.88
same,"paw volume (right hind foot), Average value","[5]; day 34, Tofacitinib 5 mpk",1.02 mL
C[C@@H]1CCN(C(=O)CC#N)C[C@@H]1N(C)c1ncnc2[nH]ccc12 [Tofacitinib],Relative to G2 percentage (%) (AUC of changes in paw volume),[4]; Embodiment 3,59.2%
same,Area under the curve AUC (ml*day) of changes in paw volume,[4]; Embodiment 3,11.27 mL·days
same,"Clinical scoring of arthritis (sum of the scores of the quadrupedal joints), Average value",[4]; day 0,0.00
same,"volume of the right hind foot, Average value",[4]; day 0,1.31 mL
same,"Clinical scoring of arthritis (sum of the scores of the quadrupedal joints), Average value",[4]; day 8,0.33
same,"volume of the right hind foot, Average value",[4]; day 8,1.40 mL
same,"Clinical scoring of arthritis (sum of the scores of the quadrupedal joints), Average value",[4]; day 11,2.67
same,"volume of the right hind foot, Average value",[4]; day 11,1.76 mL
same,"Clinical scoring of arthritis (sum of the scores of the quadrupedal joints), Average value",[4]; day 13,4.33
same,"Clinical scoring of arthritis (sum of the scores of the quadrupedal joints), Average value",[4]; day 15,5.67
same,"volume of the right hind foot, Average value",[4]; day 15,2.27 mL
same,"Clinical scoring of arthritis (sum of the scores of the quadrupedal joints), Average value",[4]; day 18,6.33
same,"volume of the right hind foot, Average value",[4]; day 18,2.40 mL
same,"Clinical scoring of arthritis (sum of the scores of the quadrupedal joints), Average value",[4]; day 21,6.22
same,"volume of the right hind foot, Average value",[4]; day 22,2.52 mL
same,"Clinical scoring of arthritis (sum of the scores of the quadrupedal joints), Average value",[4]; day 24,5.33
same,Relative to G2 percentage (%) (AUC of changes in paw volume),[5],44.3%
same,Total area (AUC of changes in paw volume),[5],16.61
same,"Clinical scoring of arthritis (sum of the scores of the quadrupedal joints), Average value","[5]; day 0, Tofacitinib 5 mpk",0
same,"paw volume (right hind foot), Average value","[5]; day 0, Tofacitinib 5 mpk",1.01 mL
same,"Clinical scoring of arthritis (sum of the scores of the quadrupedal joints), Average value","[5]; day 7, Tofacitinib 5 mpk",0.50
same,"paw volume (right hind foot), Average value","[5]; day 7, Tofacitinib 5 mpk",1.57 mL
same,"Clinical scoring of arthritis (sum of the scores of the quadrupedal joints), Average value","[5]; day 13, Tofacitinib 5 mpk",1.38
same,"paw volume (right hind foot), Average value","[5]; day 13, Tofacitinib 5 mpk",1.80 mL
same,"Clinical scoring of arthritis (sum of the scores of the quadrupedal joints), Average value","[5]; day 15, Tofacitinib 5 mpk",3.50
same,"paw volume (right hind foot), Average value","[5]; day 15, Tofacitinib 5 mpk",1.81 mL
same,"Clinical scoring of arthritis (sum of the scores of the quadrupedal joints), Average value","[5]; day 17, Tofacitinib 5 mpk",4.88
same,"paw volume (right hind foot), Average value","[5]; day 17, Tofacitinib 5 mpk",1.85 mL
same,"Clinical scoring of arthritis (sum of the scores of the quadrupedal joints), Average value","[5]; day 20, Tofacitinib 5 mpk",5.13
same,"paw volume (right hind foot), Average value","[5]; day 20, Tofacitinib 5 mpk",1.90 mL
same,"Clinical scoring of arthritis (sum of the scores of the quadrupedal joints), Average value","[5]; day 22, Tofacitinib 5 mpk",5.25
same,"paw volume (right hind foot), Average value","[5]; day 22, Tofacitinib 5 mpk",1.89 mL
same,"Clinical scoring of arthritis (sum of the scores of the quadrupedal joints), Average value","[5]; day 24, Tofacitinib 5 mpk",4.75
same,"paw volume (right hind foot), Average value","[5]; day 24, Tofacitinib 5 mpk",1.81 mL
same,"Clinical scoring of arthritis (sum of the scores of the quadrupedal joints), Average value","[5]; day 27, Tofacitinib 5 mpk",4.50
same,"paw volume (right hind foot), Average value","[5]; day 27, Tofacitinib 5 mpk",1.76 mL
same,"Clinical scoring of arthritis (sum of the scores of the quadrupedal joints), Average value","[5]; day 29, Tofacitinib 5 mpk",4.38
same,"paw volume (right hind foot), Average value","[5]; day 29, Tofacitinib 5 mpk",1.74 mL
same,"Clinical scoring of arthritis (sum of the scores of the quadrupedal joints), Average value","[5]; day 31, Tofacitinib 5 mpk",4.38
same,"paw volume (right hind foot), Average value","[5]; day 31, Tofacitinib 5 mpk",1.71 mL
same,"Clinical scoring of arthritis (sum of the scores of the quadrupedal joints), Average value","[5]; day 34, Tofacitinib 5 mpk",4.25
same,"paw volume (right hind foot), Average value","[5]; day 34, Tofacitinib 5 mpk",1.01 mL
